Measured values taken from patent US20060210500A1, “Formulations” (MERCK PATENT GMBH, priority 2003, published 2006).

Columns and labels:
Escheria coli ATCC8739 = test: challenge test, germ count by Agar plates method; format: cell-based; details: 8% aqueous suspension
Method: (§1) A standard procedure to measure the anti-microbial activity of substances was used (challenge tests). A suspension of test organisms (10^5 to 10^6 germs/ml) is inoculated into a recipient containing already the substance to be tested. Samples of the inoculated suspension are taken and the number of germs is measured thanks to the Agar plates method. Germ counts is performed at t=0, t=24 h after the inoculation, t=48 h after the inoculation, t=7 days after the inoculation, t=14 days after the inoculation.
(§2) Sterile water containing 8% w/w of treated and untreated carriers were each investigated.

[1] = tested on: Aspergillus niger ATCC 16404; test: challenge test, germ count by Agar plates method; format: cell-based; details: 8% aqueous suspension
Method: as §1, §2

[2] = tested on: Candida albicans ATCC 10231; test: challenge test, germ count by Agar plates method; format: cell-based; details: 8% aqueous suspension
Method: as §1, §2

[3] = tested on: Pseudomonas aeruginosa ATCC 9027; test: challenge test, germ count by Agar plates method; format: cell-based; details: 8% aqueous suspension
Method: as §1, §2

[4] = tested on: Staphylococcus aureus ATCC 6538; test: challenge test, germ count by Agar plates method; format: cell-based; details: 8% aqueous suspension
Method: as §1, §2

[5] = over the entire pH range; cited from earlier work

With silver oxide [0.02% Ag2O] the “Germs Number/ml after 24 h” value (Escheria coli ATCC8739; 24 h after inoculation) was 0 germs/ml, the “Germs Number/ml after 48 h” value (Escheria coli ATCC8739; 48 h after inoculation) was 0 germs/ml and the “Germs Number/ml after 7 d” value (Escheria coli ATCC8739; 7 d after inoculation) was 0 germs/ml. The “Germs Number/ml after 14 d” value (Escheria coli ATCC8739; 14 d after inoculation) was 0 germs/ml, the “Germs Number/ml after Start” value (Escheria coli ATCC8739; t=0) was 2.0 · 10^6 germs/ml and the “Germs Number/ml after 24 h” value ([1]; 24 h after inoculation) was 3.5 · 10^5 germs/ml. For the same compound, the “Germs Number/ml after 48 h” value ([1]; 48 h after inoculation) was 1.6 · 10^5 germs/ml, the “Germs Number/ml after 7 d” value ([1]; 7 d after inoculation) was 1.0 · 10^5 germs/ml and the “Germs Number/ml after 14 d” value ([1]; 14 d after inoculation) was 2.2 · 10^4 germs/ml. For the same compound, the “Germs Number/ml after Start” value ([1]; t=0) was 4.5 · 10^5 germs/ml, the “Germs Number/ml after 24 h” value ([2]; 24 h after inoculation) was 8.3 · 10^2 germs/ml and the “Germs Number/ml after 48 h” value ([2]; 48 h after inoculation) was 0 germs/ml. The “Germs Number/ml after 7 d” value ([2]; 7 d after inoculation) was 0 germs/ml, the “Germs Number/ml after 14 d” value ([2]; 14 d after inoculation) was 0 germs/ml and the “Germs Number/ml after Start” value ([2]; t=0) was 9.0 · 10^2 germs/ml. The “Germs Number/ml after 24 h” value ([3]; 24 h after inoculation) was 0 germs/ml, the “Germs Number/ml after 48 h” value ([3]; 48 h after inoculation) was 0 germs/ml and the “Germs Number/ml after 7 d” value ([3]; 7 d after inoculation) was 0 germs/ml. The “Germs Number/ml after 14 d” value ([3]; 14 d after inoculation) was 0 germs/ml, the “Germs Number/ml after Start” value ([3]; t=0) was 2.2 · 10^5 germs/ml and the “Germs Number/ml after 24 h” value ([4]; 24 h after inoculation) was 0 germs/ml. For the same compound, the “Germs Number/ml after 48 h” value ([4]; 48 h after inoculation) was 0 germs/ml, the “Germs Number/ml after 14 d” value ([4]; 14 d after inoculation) was 0 germs/ml and the “Germs Number/ml after Start” value ([4]; t=0) was 2.7 · 10^6 germs/ml.

In the case of `O=c1c(O)c(-c2ccc(O)c(O)c2)oc2cc(O)cc(O)c12` [Quercetin, 3,3′,4′,5,7-pentahydroxyflavone], the antioxidant action [5] is given as “the greatest activity amongst the structures investigated”.
